The values that follow are results of earlier work, collected in patent US12194028B2 (Slayback Pharma LLC, priority 2022, dated 2025).

One may read the aqueous solubility as the concentration that dissolves in the medium under given conditions.

Each structure is given as a SMILES string.

`COc1ccc(-n2nc(C(N)=O)c3c2C(=O)N(c2ccc(N4CCCCC4=O)cc2)CC3)cc1` [apixaban, 1-(4-methoxyphenyl)-7-oxo-6-[4-(2-oxopiperidin-1-yl)phenyl]-4,5-dihydropyrazolo [3,4-c] pyridine-3-carboxamide]: the aqueous solubility (in water) is 40 to 50 µg/mL. Further, the solubility entry (throughout physiological pH range of 1.0-8.0) is on record as “very low”.
